Test: Aqueous stability of roxithromycin (% Purity by HPLC)
Format: physicochemical
Conditions: 2 mg/mL
Procedure: Roxithromycin stability was determined for 2 mg/mL [roxithromycin] at 5, 25, and 40° C. as a function of pH and buffer (citrate) concentration. Roxithromycin %Purity was determined by area normalization using a reverse-phase HPLC method that meets the requirements of the EP Monograph. Solution pH values were determined per USP <791>.

Question: For `CC[C@H]1OC(=O)[C@H](C)[C@@H](O[C@H]2C[C@@](C)(OC)[C@@H](O)[C@H](C)O2)[C@H](C)[C@@H](O[C@@H]2O[C@H](C)C[C@H](N(C)C)[C@H]2O)[C@](C)(O)C[C@@H](C)/C(=N\OCOCCOC)[C@H](C)[C@@H](O)[C@]1(C)O` [roxithromycin], which “Roxithromycin % Purity By Area Normalization” value (25° C., citrate pH 6, 20 mM, 0.5 mo) is on record?
Answer: Its value is 96%.

Question: And the “Roxithromycin % Purity By Area Normalization” value (25° C., citrate pH 6, 20 mM, 0.9 mo)?
Answer: Its value is 96%.

Question: And the “Roxithromycin % Purity By Area Normalization” value (25° C., citrate pH 6, 20 mM, 1.5 mo)?
Answer: Its value is 94%.

Question: And the “Roxithromycin % Purity By Area Normalization” value (25° C., citrate pH 6, 20 mM, 2.6 mo)?
Answer: The value was 92%.

Question: And the “Roxithromycin % Purity By Area Normalization” value (25° C., citrate pH 6, 20 mM, 5.3 mo)?
Answer: The value was 90%.

Question: What about the “Roxithromycin % Purity By Area Normalization” value (25° C., citrate pH 6, 20 mM, 7.3 mo) of the same compound?
Answer: The value was 87%.

Question: What about the “Roxithromycin % Purity By Area Normalization” value (25° C., citrate pH 6, 50 mM, 0 mo) of the same compound?
Answer: Its value is 98%.

Question: What about the “Roxithromycin % Purity By Area Normalization” value (25° C., citrate pH 6, 50 mM, 0.3 mo) of the same compound?
Answer: Its value is 96%.

Question: What about the “Roxithromycin % Purity By Area Normalization” value (25° C., citrate pH 6, 50 mM, 0.5 mo) of the same compound?
Answer: Its value is 94%.

Question: What about the “Roxithromycin % Purity By Area Normalization” value (25° C., citrate pH 6, 50 mM, 0.9 mo) of the same compound?
Answer: Its value is 92%.

Question: What about the “Roxithromycin % Purity By Area Normalization” value (25° C., citrate pH 6, 50 mM, 1.5 mo) of the same compound?
Answer: The value was 89%.

Question: What about the “Roxithromycin % Purity By Area Normalization” value (25° C., citrate pH 6, 50 mM, 2.6 mo) of the same compound?
Answer: The value was 85%.

Question: What about the “Roxithromycin % Purity By Area Normalization” value (25° C., citrate pH 6, 50 mM, 5.3 mo) of the same compound?
Answer: Its value is 81%.

Question: And the “Roxithromycin % Purity By Area Normalization” value (25° C., citrate pH 6, 50 mM, 7.3 mo)?
Answer: Its value is 78%.

Question: What about the “Roxithromycin % Purity By Area Normalization” value (40° C., citrate pH 4, 20 mM, 0 mo) of the same compound?
Answer: The value was 81%.

Question: What about the “Roxithromycin % Purity By Area Normalization” value (40° C., citrate pH 4, 20 mM, 0.3 mo) of the same compound?
Answer: The value was 27%.

Question: What about the “Roxithromycin % Purity By Area Normalization” value (40° C., citrate pH 4, 20 mM, 0.5 mo) of the same compound?
Answer: Its value is 10%.

Question: And the “Roxithromycin % Purity By Area Normalization” value (40° C., citrate pH 4, 20 mM, 0.9 mo)?
Answer: The value was 2%.

Question: What about the “Roxithromycin % Purity By Area Normalization” value (40° C., citrate pH 4, 50 mM, 0 mo) of the same compound?
Answer: The value was 78%.

Question: And the “Roxithromycin % Purity By Area Normalization” value (40° C., citrate pH 4, 50 mM, 0.3 mo)?
Answer: The value was 15%.

Question: And the “Roxithromycin % Purity By Area Normalization” value (40° C., citrate pH 4, 50 mM, 0.5 mo)?
Answer: Its value is 3%.

Question: And the “Roxithromycin % Purity By Area Normalization” value (40° C., citrate pH 4, 50 mM, 0.9 mo)?
Answer: The value was 1%.

Question: What about the “Roxithromycin % Purity By Area Normalization” value (40° C., citrate pH 5, 20 mM, 0 mo) of the same compound?
Answer: The value was 96%.

Question: And the “Roxithromycin % Purity By Area Normalization” value (40° C., citrate pH 5, 20 mM, 0.3 mo)?
Answer: Its value is 74%.

Question: What about the “Roxithromycin % Purity By Area Normalization” value (40° C., citrate pH 5, 20 mM, 0.5 mo) of the same compound?
Answer: The value was 66%.

Question: What about the “Roxithromycin % Purity By Area Normalization” value (40° C., citrate pH 5, 20 mM, 0.9 mo) of the same compound?
Answer: Its value is 60%.

Question: And the “Roxithromycin % Purity By Area Normalization” value (40° C., citrate pH 5, 20 mM, 1.5 mo)?
Answer: Its value is 50%.

Question: And the “Roxithromycin % Purity By Area Normalization” value (40° C., citrate pH 5, 20 mM, 2.6 mo)?
Answer: The value was 36%.

Question: And the “Roxithromycin % Purity By Area Normalization” value (40° C., citrate pH 5, 20 mM, 5.3 mo)?
Answer: The value was 21%.

Question: What about the “Roxithromycin % Purity By Area Normalization” value (40° C., citrate pH 5, 50 mM, 0 mo) of the same compound?
Answer: Its value is 92%.

Question: And the “Roxithromycin % Purity By Area Normalization” value (40° C., citrate pH 5, 50 mM, 0.3 mo)?
Answer: The value was 66%.

Question: What about the “Roxithromycin % Purity By Area Normalization” value (40° C., citrate pH 5, 50 mM, 0.5 mo) of the same compound?
Answer: Its value is 55%.

Question: What about the “Roxithromycin % Purity By Area Normalization” value (40° C., citrate pH 5, 50 mM, 0.9 mo) of the same compound?
Answer: Its value is 44%.

Question: And the “Roxithromycin % Purity By Area Normalization” value (40° C., citrate pH 5, 50 mM, 1.5 mo)?
Answer: Its value is 28%.

Question: And the “Roxithromycin % Purity By Area Normalization” value (40° C., citrate pH 5, 50 mM, 2.6 mo)?
Answer: The value was 13%.

Question: What about the “Roxithromycin % Purity By Area Normalization” value (40° C., citrate pH 5, 50 mM, 5.3 mo) of the same compound?
Answer: Its value is 3%.

Question: What about the “Roxithromycin % Purity By Area Normalization” value (40° C., citrate pH 5, 100 mM, 0 mo) of the same compound?
Answer: Its value is 90%.

Question: What about the “Roxithromycin % Purity By Area Normalization” value (40° C., citrate pH 5, 100 mM, 0.3 mo) of the same compound?
Answer: The value was 60%.

Question: What about the “Roxithromycin % Purity By Area Normalization” value (40° C., citrate pH 5, 100 mM, 0.5 mo) of the same compound?
Answer: The value was 46%.

Question: And the “Roxithromycin % Purity By Area Normalization” value (40° C., citrate pH 5, 100 mM, 0.9 mo)?
Answer: Its value is 31%.

Question: And the “Roxithromycin % Purity By Area Normalization” value (40° C., citrate pH 5, 100 mM, 1.5 mo)?
Answer: Its value is 14%.

Question: What about the “Roxithromycin % Purity By Area Normalization” value (40° C., citrate pH 5, 100 mM, 2.6 mo) of the same compound?
Answer: Its value is 4%.

Question: And the “Roxithromycin % Purity By Area Normalization” value (40° C., citrate pH 6, 20 mM, 0 mo)?
Answer: Its value is 98%.

Question: And the “Roxithromycin % Purity By Area Normalization” value (40° C., citrate pH 6, 20 mM, 0.3 mo)?
Answer: The value was 95%.

Question: What about the “Roxithromycin % Purity By Area Normalization” value (40° C., citrate pH 6, 20 mM, 0.5 mo) of the same compound?
Answer: Its value is 92%.

Question: What about the “Roxithromycin % Purity By Area Normalization” value (40° C., citrate pH 6, 20 mM, 0.9 mo) of the same compound?
Answer: Its value is 89%.

Question: What about the “Roxithromycin % Purity By Area Normalization” value (40° C., citrate pH 6, 20 mM, 1.5 mo) of the same compound?
Answer: The value was 84%.

Question: What about the “Roxithromycin % Purity By Area Normalization” value (40° C., citrate pH 6, 20 mM, 2.6 mo) of the same compound?
Answer: Its value is 79%.

Question: And the “Roxithromycin % Purity By Area Normalization” value (40° C., citrate pH 6, 20 mM, 5.3 mo)?
Answer: Its value is 76%.

Question: What about the “Roxithromycin % Purity By Area Normalization” value (40° C., citrate pH 6, 50 mM, 0 mo) of the same compound?
Answer: The value was 98%.

Question: What about the “Roxithromycin % Purity By Area Normalization” value (40° C., citrate pH 6, 50 mM, 0.3 mo) of the same compound?
Answer: The value was 89%.

Question: And the “Roxithromycin % Purity By Area Normalization” value (40° C., citrate pH 6, 50 mM, 0.5 mo)?
Answer: The value was 82%.

Question: What about the “Roxithromycin % Purity By Area Normalization” value (40° C., citrate pH 6, 50 mM, 0.9 mo) of the same compound?
Answer: Its value is 77%.

Question: And the “Roxithromycin % Purity By Area Normalization” value (40° C., citrate pH 6, 50 mM, 1.5 mo)?
Answer: Its value is 71%.

Question: What about the “Roxithromycin % Purity By Area Normalization” value (40° C., citrate pH 6, 50 mM, 2.6 mo) of the same compound?
Answer: The value was 65%.

Question: What about the “Roxithromycin % Purity By Area Normalization” value (40° C., citrate pH 6, 50 mM, 5.3 mo) of the same compound?
Answer: Its value is 61%.

Question: And the “Roxithromycin % Purity By Area Normalization” value (40° C., citrate pH 6, 100 mM, 0 mo)?
Answer: The value was 98%.

Question: What about the “Roxithromycin % Purity By Area Normalization” value (40° C., citrate pH 6, 100 mM, 0.3 mo) of the same compound?
Answer: The value was 85%.

Question: What about the “Roxithromycin % Purity By Area Normalization” value (40° C., citrate pH 6, 100 mM, 0.5 mo) of the same compound?
Answer: Its value is 77%.

Question: What about the “Roxithromycin % Purity By Area Normalization” value (40° C., citrate pH 6, 100 mM, 0.9 mo) of the same compound?
Answer: The value was 72%.

Question: What about the “Roxithromycin % Purity By Area Normalization” value (40° C., citrate pH 6, 100 mM, 1.5 mo) of the same compound?
Answer: Its value is 66%.

Question: And the “Roxithromycin % Purity By Area Normalization” value (40° C., citrate pH 6, 100 mM, 2.6 mo)?
Answer: Its value is 58%.

Question: What about the “Roxithromycin % Purity By Area Normalization” value (40° C., citrate pH 6, 100 mM, 5.3 mo) of the same compound?
Answer: The value was 48%.

— US20070149465A1, “COMPOSITIONS AND METHODS FOR PREVENTION AND TREATMENT OF CACHEXIA” (priority 2005, published 2007)
